The values that follow come from US9598362B2, “Benzidine derivative, method for preparing same, and pharmaceutical composition containing benzidine derivative for treating liver disease caused by hepatitis C virus” (priority 2013, dated 2017).

Where two headings read alike, the source gives them in different places.

Data set [1] in a line: Evaluation of plasma stability. Type of data set: in vitro ADME, mouse. Particulars: plasma:phosphate buffer pH 7.4 1:1, 37° C., LC-MS/MS, relative to time 0. Here is the method:
Particularly, the compound of Example 16 was dissolved in dimethylsulfoxide at the concentration of 5 μM, resulting in the preparation of the sample solution. The plasma solution (495 μl) was prepared by mixing phosphate buffer (pH 7.4) and plasma at the ratio of 1:1, which was loaded in each well of a 96-well plate. The sample solution prepared above was added to each well (5 μl) of the plate. Then, the plate was covered with a lid, followed by shaking-culture at 100 rpm at 37° C. for 0.5, 1, and 4 hours in the orbital shaker. The reaction was terminated by adding 0-5° C. acetonitrile. At this time, in the case when the process time was 0 after the sample treatment, the reaction was terminated with acetonitrile at the same time as the sample solution was loaded in the plate containing the plasma solution. Upon completion of the reaction, the plate was kept frozen. Then, the plate was centrifuged at 3000 rpm for 10 minutes. Upon completion of the centrifugation, the supernatant (100 μl) was loaded in each well of a 96-well plate, followed by LC-MS/MS. The result obtained by measuring the plasma survival rate at the process time 0 was considered as the standard, based on which each time-dependent plasma survival rate was calculated by considering the concentration over the time of each sample. The results are presented in Tale 6.

Data set [2] can be described thus: Evaluation of physiological activity: pharmacokinetics after oral or intravenous administration. The class given is in vivo. Particulars: male mouse, 5 mg/kg; for AUC(0-inf): read-out: AUC0-∞, value up to infinite time from the administration; for half-life: read-out: T1/2 (time) (converted). Here is the method: The following experiment was performed to evaluate physiological activity of the compound prepared in Example 16 by observing the pharmacokinetic changes.
Particularly, the compound of Example 16 was orally or intravenously administered to male mouse, followed by observation of the pharmacokinetic changes. For the oral administration, the compound of Example 16 was dissolved to make the concentration 2.5 mg/ml. The prepared compound solution was orally administered at the dose of 5 mg/kg, followed by drawing blood from the jugular vein of the mouse at regular intervals. For the intravenous administration, tubes were inserted in the jugular vein and the femoral vein of male mouse. The compound solution was intravenously injected through the femoral vein at the dose of 5 mg/kg, followed by drawing blood from the mouse at regular intervals. The drawed blood was centrifuged to separate plasma. The plasma and urine samples were pretreated with a proper organic solvent, followed by investigation by LC-MS/MS. At this time, LC-MS/MS was performed by using mass spectrometry (Agilent 6460 QQQ, Agilent), LC lamp (Agilent 1260, Agilent), autosampler (Agilent 1260, Agilent), and data analysis system (Peak Sample Data System, Analyst 1.4.2, Applied Biosystems), and the conditions for LC-MS/MS were as follows; sample injection amount: 10 μl, flow rate: 0.3 ml/min, column: […] C18 column (50 mm×2.0 mm, 12 nm, YMC), elution buffer: acetonitrile: 10 mM ammoniumformate buffer=90:10 (v/v), and MS/MS condition: MPM mode: HCV (m/z 761.8170.1), IS (imipramine, m/z 281.286.2). The blood concentration over the administration period of the compound treated via oral or intravenous administration was analyzed, from which the noncompartmental pharmacokinetic parameter was calculated by using WinNonlin (Pharsight, USA).

Another data set deals with HCV replicon NK/R2AN. As to the kind of experiment: Evaluation of anti-HCV activity 2: inhibition of HCV replication, huh7.5.1 cells with replicon NK/R2AN, renilla luciferase. The class given is cell-based. Particulars: for EC50: Hepatitis C virus.
A further data set deals with hERG (Homo sapiens, UniProt Q12809). As to the kind of experiment: hERG ligand binding, fluorescence polarization with red fluorescent hERG channel ligand.
Chain of hERG (Q12809 whole entry): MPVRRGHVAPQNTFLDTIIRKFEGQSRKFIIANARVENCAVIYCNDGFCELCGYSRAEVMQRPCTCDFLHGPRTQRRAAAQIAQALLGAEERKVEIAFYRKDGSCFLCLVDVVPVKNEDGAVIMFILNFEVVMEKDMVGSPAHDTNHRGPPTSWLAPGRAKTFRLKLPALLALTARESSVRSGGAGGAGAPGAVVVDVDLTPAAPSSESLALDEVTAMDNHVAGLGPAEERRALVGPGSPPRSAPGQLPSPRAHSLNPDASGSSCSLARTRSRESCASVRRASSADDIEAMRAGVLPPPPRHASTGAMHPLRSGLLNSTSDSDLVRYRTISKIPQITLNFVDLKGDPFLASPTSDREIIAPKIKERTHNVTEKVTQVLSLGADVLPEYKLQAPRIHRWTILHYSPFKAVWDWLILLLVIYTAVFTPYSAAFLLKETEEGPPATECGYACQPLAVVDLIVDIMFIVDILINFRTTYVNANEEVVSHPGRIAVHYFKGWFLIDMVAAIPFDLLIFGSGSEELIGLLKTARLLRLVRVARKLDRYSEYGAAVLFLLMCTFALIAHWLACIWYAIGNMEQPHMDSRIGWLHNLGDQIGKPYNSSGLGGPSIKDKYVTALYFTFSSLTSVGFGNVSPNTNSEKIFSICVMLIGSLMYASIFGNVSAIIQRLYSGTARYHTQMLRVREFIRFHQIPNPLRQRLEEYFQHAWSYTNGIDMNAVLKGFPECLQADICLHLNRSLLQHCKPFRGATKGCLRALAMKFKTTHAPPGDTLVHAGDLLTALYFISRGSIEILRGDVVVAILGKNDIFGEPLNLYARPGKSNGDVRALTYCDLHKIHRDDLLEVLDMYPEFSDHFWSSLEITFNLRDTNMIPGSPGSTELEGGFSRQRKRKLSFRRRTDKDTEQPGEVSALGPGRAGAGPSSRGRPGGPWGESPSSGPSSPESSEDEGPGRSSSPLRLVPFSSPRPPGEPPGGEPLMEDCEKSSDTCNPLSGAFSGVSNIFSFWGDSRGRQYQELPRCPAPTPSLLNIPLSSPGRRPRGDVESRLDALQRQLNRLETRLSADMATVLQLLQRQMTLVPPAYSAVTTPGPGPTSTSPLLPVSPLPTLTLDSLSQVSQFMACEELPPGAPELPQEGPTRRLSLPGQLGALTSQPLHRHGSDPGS

As to `COC(=O)N[C@@H](C(=O)N1CCC[C@H]1C(=O)Nc1ccc(-c2ccc(NC(=O)[C@@H]3CCCN3C(=O)[C@H](NC(=O)OC)c3ccccc3)cc2)cc1)c1ccccc1` [Example 16, dimethyl(1S,1′S)-2,2′-((2S,2′S)-2,2′-(biphenyl-4,4′-diylbis(azandiyl))bis(oxomethylene)bis(pyrrolidine-2,1-diyl))bis(2-oxo-1-phenylethane-2,1-diyl)dicarbamate], the “Survival rate after 0.5 h” value in data set [1] is more than 99%. Further, the “Survival rate after 1 h” value in data set [1] was more than 99%. Further, the AUC0-t in data set [2] (intravenous injection) stood at 9160 ± 1030 ng·h/mL; in data set [2] (oral administration), 1830 ± 565 ng·h/mL; in data set [2] (plasma, iv, intravenously injected, read-out: AUC0-24, value up to 24 hours from the administration), 9160 ng·h/mL; in data set [2] (plasma, po, orally administered, read-out: AUC0-24, value up to 24 hours from the administration), 1830 ng·h/mL. Also, the “AUC0-∞” value in data set [2] (intravenous injection) is 9370 ± 1060 ng·h/mL; in data set [2] (oral administration), 2500 ± 498 ng·h/mL. Besides, in data set [2] (oral administration), the “Tmax (time)” value came out at 2 ± 1.73 time. The compound also displayed a peak concentration (Cmax) in data set [2] (oral administration, plasma) of 188 ng/mL. Also, the AUC(0-inf) in data set [2] (plasma, iv, intravenously injected) was 9370 ng·h/mL; in data set [2] (plasma, po, orally administered) it was 2500 ng·h/mL. In addition, in data set [2] (plasma, po relative to iv, printed in the Intravenous Injection column, read-out: Ft, bioavailability), the bioavailability was 20%. In addition, the clearance in data set [2] (plasma, intravenous injection) was 8.97 mL/min/kg. In addition, the half-life in data set [2] (plasma, intravenous injection) is 4.09 ± 3.06 h; in data set [2] (plasma, oral administration), 15 ± 9.5 h. Also, the Vd in data set [2] (plasma, intravenous injection, read-out: Vss) amounted to 1.31 ± 0.144 L/kg. The Tmax in data set [2] (plasma, oral administration, read-out: time to reach the maximum concentration (Tmax)) came to 2 h. In addition, the EC50 was less than 0.0001 µM with HCV replicon NK/R2AN (Huh-7.5.1) and less than 0.0001 µM with HCV replicon NK/R2AN (Huh-7.5.1, 72 h, read-out: EC50 grade). Besides, the “EC50 (in words)” value in the data set with HCV replicon NK/R2AN (duplicated HCV treated with compound) is recorded as “significantly low”. In addition, the IC50 on hERG came out at 9.8 µM.
